According to patent US5362915A, “Phenyl-substituted cycloalkenyl compounds useful as PDE IV inhibitors” (SmithKline Beecham Pharma GmbH, priority 1990, dated 1994):

Key:
[1] = target: c-AMP phosphodiesterase (erythrocytes); assay: Inhibition of Cyclic AMP Phosphodiesterase; assay type: biochemical; details: erythrocyte phosphodiesterase extract
Method: The procedure used was that described by Arch, J. R. S. and Newsholme, E. A. in Biochem. J. 158, 603, (1976):
Erythrocytes were obtained from Na-citrate (16 mM; 0.1 ml/ml blood) anticoagulated blood by repeated centrifugation with removal of the buff coat and washing with an isotonic buffer (composition in mM: NaCl 13.7, KCl 4, CaCl2.2 H2 O 1.8, Na2 HPO4.12 H2 O 0.8, NaH2 PO4 0.2, MgSO4.7 H2 O 0.7, Hepes 3.4; pH 7.4).
The phosphodiesterase was extracted by mixing the erythrocytes with 4 volumes of 7 mM phosphate buffer, pH7.4, followed by sonification (3×10 sec; 100 W) and then centrifuging for 30 min at 4200×g.
All supernatants were diluted in the extraction medium and assayed for phosphodiesterase activity within 6 hours of preparation, using the radiochemical procedure described in the above mentioned reference.

[2] = system: PDE IV (Ro 20-1724-inhibited); details: human monocyte; cited from earlier work
PDE III (cGMP-inhibited) = details: guinea-pig heart; cited from earlier work
[3] = system: PDE Ib (Ca^2 +/calmodulin-stimulated); details: porcine aorta; cited from earlier work
[4] = system: PDE Ic (Ca^2 +/calmodulin-stimulated); details: guinea-pig heart; cited from earlier work

| Ki [1] [µM] | Compound | other results |
| --- | --- | --- |
| 10.9 | COc1ccc(C2=CC(=O)CC2)cc1OC [Example 1, 1-(3,4-Dimethoxyphenyl)-cyclopent-1,2-ene-3-one] | – |
| 1.1 | COc1ccc(C2=CC(=O)CC2)cc1OC1CCCC1 [Example 2, 1-(3-(Cyclopentyloxy-4-methoxy)-phenyl)-cyclopent-1,2-ene-3-one] | – |
| 0.7 | COc1ccc(C2=CC(=O)CCC2)cc1OC1CCCC1 [Example 3] | – |
| 3 | COc1ccc(C2=CC(=O)CCC2)cc1OC [Example 4, 1-(3,4-Dimethoxyphenyl)-cyclohex-1,2-ene-3-one] | – |
| 2.1 | COc1ccc(C2CCCCC2)cc1OC1CCCC1 [Example 5, 1-Methoxy-2-cyclopentyloxy-4-cyclohexyl-benzene] | – |
| 14.1 | COc1ccc(C2CCCCC2)cc1OC [Example 6, 1,2-Dimethoxy-4-cyclohexyl-benzene] | – |
| – | Nc1nc2c(ncn2[C@@H]2O[C@@H]3COP(=O)(O)O[C@H]3[C@H]2O)c(=O)[nH]1 [cGMP] | Km [2]: 38 µM; Km (PDE III (cGMP-inhibited)): 8 µM; Km [3]: 5 µM; Km [4]: 2 µM |
